# “Also recorded” adds a separate entry of the source. Where no end group is shown, it is not given here.
# Test system: IL-5 and IL-13 in lung and BALF
# Assay: In vivo ILC activation (intranasal), lung analysis: Il5, Il13, Il17rb mRNA in lung mononuclear cells (qPCR), IL-5/IL-13 in BALF (LegendPlex)
# Design: species or system mouse
# Method: Mice and in vivo ILC activation. C57Bl/6J mice were purchased from the Jackson Laboratory. Nmur1-LacZ reporter mice with a LacZ cassette knocked into the Nmur1 locus were rederived from Nmur1^tm1.1(KOMP)Vleg sperm obtained from the trans-NIH Knock-Out Mouse Project (KOMP) Repository. Mice were housed under specific-pathogen-free conditions. For experiments, mice were matched for sex and age, and most mice were 6-10 weeks old. […] The total administered volume was 20 μl for all conditions. Mice were randomly assigned to treatment groups after matching for sex and age. […] Mice were treated intranasally with 10 μg HDM on day 0, 7, 8, and 9, prior to sacrifice on day 10. All experiments were conducted in accordance with animal protocols approved by the Harvard Medical Area Standing Committee on Animals or BWH IACUC.
# Lung analysis. Mice were sacrificed and perfused with cold PBS. Where indicated, after perfusion, broncho alveolar lavage (BAL) was obtained by injecting 1.5 ml cold PBS into the lungs via a secured tracheal cannula. BALF was centrifuged, and the supernatant was used for analyzing cytokine levels and the cell pellet was resuspended, counted, and used for flow cytometry. Following BAL, lung lobes were dissected. The post-caval lobe was fixed in buffered formalin for histological analysis. Single cell suspensions of the remaining lung parenchymal tissue were prepared with the GentleMACS lung dissociation kit (Miltenyi Biotec) according to the manufacturer's instructions. Where indicated, cells were diluted in 10% Trypan Blue and viable cells counted using a hemocytometer.
# Quantitative real-time PCR. RNA was isolated using RNeasy Plus Mini Kit (Qiagen) and reverse transcribed to cDNA with iScript cDNA Synthesis Kit (Bio-Rad). Gene expression was analyzed by quantitative real-time PCR on a ViiA7 System (Thermo Fisher Scientific) using TaqMan Fast Advanced Master Mix (Thermo Fisher Scientific) with the following primer/probe sets: IL-5 (Mm00439646_m1), IL-13 (Mm00434204_m1), IL-17RB (Mm00444709_m1), Nmur1 (Mm04207994 m1), Nmur2 (Mm00600704_m1), and β-Actin (Applied Biosystems). Expression values were calculated relative to β-Actin detected in the same sample by duplex qPCR.
# Cytokine quantification. Cytokine concentrations in BAL fluid, lung and supernatant of in vitro ILC cultures were analyzed by the LegendPlex Mouse Th Cytokine Panel (13-plex) (BioLegend) according to the manufacturer's instructions and analyzed on a FACS Calibur (BD Biosciences).
# Mice and in vivo ILC activation. C57Bl/6J mice were purchased from the Jackson Laboratory. Nmur1-LacZ reporter mice with a LacZ cassette knocked into the Nmur1 locus were rederived from Nmur1^tm1.1(KOMP)Vleg sperm obtained from the trans-NIH Knock-Out Mouse Project (KOMP) Repository. NMU-deficient mice (NMU-KO) were rederived from B6.129S2-Nmu<tm1Mko> embryos from the RIKEN BioResource Center. For experiments with Nmur1-LacZ (Nmur1-KO) and NMU-KO mice, littermates that were either homozygous or heterozygous for the wild type allele were used as controls. Mice were housed under specific-pathogen-free conditions. For experiments, mice were matched for sex and age, and most mice were 6-10 weeks old. […] The total administered volume was 20 μl for all conditions. Mice were randomly assigned to treatment groups after matching for sex and age. […]
# Lung analysis. […] BALF was centrifuged, and the supernatant was used for analyzing cytokine levels and the cell pellet was resuspended, counted, and used for flow cytometry. […]
substance,measurement,setting,value
"Neuromedin U (FRVDEEFQSPFASQSRGYFLFRPRN-NH2; listed as Homo sapiens) [NMU, neuropeptide ligand of Nmur1 (US Biological)]",IL-33-induced lung inflammation with NMU,250 ng IL-33 and 10 μg NMU (FIG. 11),little impact; also recorded: does not significantly amplify
same,allergic lung inflammation induced by the substance alone,"NMU 20 μg intranasally for 3 consecutive days, no alarmin",little effect; also recorded: minimal
same,IL-5 protein in BALF,"NMU alone 20 μg intranasally for 3 days, LegendPlex",only trace quantities
same,IL-25-induced allergic airway inflammation with NMU,NMU co-administered with IL-25,dramatically enhanced; also recorded: amplifies
same,Il5 and Il13 mRNA expression in lung (lung mononuclear cells),"intranasal daily for 3 days (500 ng IL-25, 20 μg NMU), qPCR",did not cause a significant increase
